Source: patent US9656981B2, “Peripherally-acting cannabinoid receptor agonists for chronic pain” (The Regents of the University of California, priority 2012, dated 2017)
Read-outs that look alike come from different tables or passages of the source.

What was measured:
human CB1R (hCB1R) = human CB1R (hCB1R) (Homo sapiens, UniProt P21554); assay: human CB1R (hCB1R) calcium flux assay; assay type: cell-based; details: Table 1; read-out: Ca Flux % Emax
From the text: Compounds were first screened for: a) CB1R and CB2R binding, b) CB1R agonist activity using the human CB1R (hCB1R) calcium flux assay, and c) BBB permeability using the Madin-Darby canine kidney (MDCK-MDR1) cell line assay.
The calcium 3 dye assays were run according to manufacturer's specifications (http://www.moleculardevices.com/Products/Assay-Kits/GPCRs/FLIPR-Calcium.html) and as reported in our previous publications^112,113. Briefly, wells of black clear-bottom 96-well tissue culture-treated plates are seeded with 20,000 cells the afternoon before assay. The day of assay, the cells are incubated with the Ca^2+ indicator dye for 1 hr @ 37° C. For antagonist assays, the test compound is preincubated with the cells during the last 10 min of the dye incubation. Basal or unstimulated fluorescence intensity is recorded in the FlexStation @ 37° C. for 13 sec followed by the addition of test compound or CP 55,940 (depending on the assay endpoint). Fluorescence intensity is recorded for an additional 47 sec. The effect of test compound in each well is determined by subtracting the minimum from the maximum fluorescence during the 47-sec recording period.

[1] = system: CFA-induced heat hyperalgesia; assay: CFA chronic inflammation, heat hyperalgesia (Hargreaves); assay type: in vivo, rat; details: systemic injection
Method: The Hargreaves method was used to assess paw-withdrawal latency to a thermal nociceptive stimulus^175. Rats were acclimated (10 min) within Plexiglas enclosures (10×20×20 cm) on a clear glass plate preheated to 30° C. A radiant heat source (adjustable infrared lamp) and a timer were used to measure paw withdrawal latency (Model 390, IITC Instruments). Each paw was tested 4 times at 30% maximal intensity allowing 5 min between each test. […] Results of 4 tests were averaged for each paw for that session.

rats [2] = assay: Rotarod test of the tetrad; assay type: in vivo, rat; details: 2-3 hr
Method: Rats were tested for motor function and the ataxic effects of novel drugs as described previously^151-153. To determine drug effects on motor coordination, rats are trained 72 h before the test (3 sessions 24 h apart) to remain for at least 180 s on a rotarod revolving at an acceleration of 4-40 revs over 5 min). Rats are tested immediately before vehicle or drug injections and tested again at 2, 6, 24 and 48 hrs after injection. The time for which the rats are able to remain on the rotarod is recorded up to a cut-off of 5 min.

CB1R = CB1R (Homo sapiens, UniProt P21554); assay: CB1R radioligand displacement binding assay (CP55940 radioligand)
Method: Heterologous competition binding assays were performed to calculate receptor affinities. Unlabeled SR141716 or SR144528 were used as appropriate controls for non-specific binding (NSB) in the assay. Calculation of the equilibrium dissociation constant (Ki) was performed using the Cheng-Prusoff equation.

rats [3] = assay: Tail-flick test of the tetrad; assay type: in vivo, rat; details: 0.3 mg/kg, intraperitoneal
From the text: A modified Hargreaves apparatus (Model 390, IITC Instr.) is used to measure tail-flick latency (TFL). Radiant heat is directed to a point 3 cm from the tail tip and the TFL observed and timed with a photo cell counter. The intensity of the radiant heat is adjusted for a baseline TFL of approximately 5-7 seconds for naïve rats, with a 25 s cutoff set to avoid tissue damage (see FIG. 3).

rats [4] = assay: Catalepsy (ring) test of the tetrad; assay type: in vivo, rat; details: 1-3 hrs
Method: Catalepsy (ring) test. Catalepsy was determined with a ring immobility test^154, modified for rats^139, 153. Rats are placed with their forepaws on a horizontal metal ring (12 cm diameter) at a height that allows their hindpaws to just touch the bench surface. Immobility is recorded as the time for the rat to move off the ring with a 100 s cutoff. Rats are tested before vehicle/drug injections and again at various times after injection.

[5] = system: sciatic nerve entrapment (SNE) neuropathy; assay: SNE neuropathy, mechanical allodynia (von Frey); assay type: in vivo, rat; details: 0.3 mg/kg
Method: The effectiveness of CBR agonists was tested for alleviating the painful symptoms of neuropathy induced by unilateral sciatic nerve entrapment (SNE)^131. The peripheral neuropathy induced by SNE is highly comparative to that of chronic constriction injury (CCI), which uses chromic gut suture materials instead of polyethylene cuffs^132. […] This increased excitability is at least in part attributable to injury-induced post-transcriptional transport of the voltage-gated sodium channel 1.8 (NaV1.8) mRNA, axonal accumulation of NaV1.8 mRNA, and its local protein translation leading to the increased NaV1.8 functional expression in injured nerve^136. The hyperexcitability and ectopic burst discharge of primary sensory neurons are widely considered to be the major contributors to pain symptomatology of peripheral neuropathy models. The SNE-induced mechanical allodynia effectively models the most common complaint of human neuropathy patients of dynamic mechanical allodynia. Behavioral measurements of mechanical sensitivity were conducted before and after induction of SNE as follows:
(§1) Rats are placed in a plastic-walled cage (10×20×13 cm) with a metal mesh floor (0.6×0.6 cm holes) and allowed to acclimate for 10 min. The amount of pressure (g) needed to evoke a hindpaw withdrawal response is measured 4 times on each paw separated by 30-s intervals using a von Frey-type digital meter (Model 1601C, IITC Instr.). Results of 4 tests/session are averaged for each paw.

[6] = system: CFA-induced mechanical allodynia; assay: CFA chronic inflammation, mechanical allodynia; assay type: in vivo, rat; details: systemic injection
Method: as §1
Compounds were tested in a well-established model of chronic inflammation. In this model, unilateral intraplantar injection of complete Freund's adjuvant (CFA) leads to long-lasting symptoms of mechanical allodynia and thermal hyperalgesia of the affected hindpaw, which is alleviated by local, […] administration of CB1R ligands^125, 155. […] This is consistent with the higher CB1R affinity of our novel compound 13339-145-35 (Compound 9, see Table 1) compared with the AstraZeneca AZ11713908 compound^125.

rats [7] = assay: Hypothermia test of the tetrad; assay type: in vivo, rat
Method: Rats are acclimated to a plastic restrainer apparatus (Model RTV-180 Braintree Scientific Inc.) on the day of testing by placing them in the restrainer twice for 5 min separated by 20 min. Baseline core temperature is taken before treatment, and the rectal temperature is measured again at various times after injection of the CB1R ligands.

CB2R = CB2R (Homo sapiens, UniProt P34972); assay: CB2R radioligand displacement binding assay (CP55940 radioligand)
Chain of CB2R (P34972 whole entry): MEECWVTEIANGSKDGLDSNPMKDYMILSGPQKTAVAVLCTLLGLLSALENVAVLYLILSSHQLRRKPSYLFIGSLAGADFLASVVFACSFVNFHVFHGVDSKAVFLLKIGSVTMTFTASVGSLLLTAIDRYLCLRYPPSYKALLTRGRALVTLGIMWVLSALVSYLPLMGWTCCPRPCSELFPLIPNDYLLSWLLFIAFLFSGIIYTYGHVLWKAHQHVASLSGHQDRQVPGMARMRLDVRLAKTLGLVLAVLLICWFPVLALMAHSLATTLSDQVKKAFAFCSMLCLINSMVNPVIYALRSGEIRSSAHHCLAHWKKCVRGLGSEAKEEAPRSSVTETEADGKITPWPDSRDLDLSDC

Chain of CB1R (P21554 whole entry): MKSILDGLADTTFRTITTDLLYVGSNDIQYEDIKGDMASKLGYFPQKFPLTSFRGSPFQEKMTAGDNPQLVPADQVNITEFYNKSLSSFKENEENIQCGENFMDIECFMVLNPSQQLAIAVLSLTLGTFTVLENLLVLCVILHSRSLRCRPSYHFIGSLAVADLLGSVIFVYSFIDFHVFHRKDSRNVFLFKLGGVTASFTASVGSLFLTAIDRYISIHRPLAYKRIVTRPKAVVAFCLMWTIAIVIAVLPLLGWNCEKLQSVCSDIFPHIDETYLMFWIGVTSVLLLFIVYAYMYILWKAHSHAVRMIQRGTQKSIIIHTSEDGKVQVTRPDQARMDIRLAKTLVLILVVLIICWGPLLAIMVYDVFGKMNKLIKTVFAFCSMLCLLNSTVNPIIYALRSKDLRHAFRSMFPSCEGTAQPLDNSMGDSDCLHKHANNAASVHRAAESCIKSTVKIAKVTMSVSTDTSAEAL
Chain of human CB1R (hCB1R) (P21554 whole entry): as above

With COc1ccc(/C=C2\C=C(CCN3CCOCC3)c3ccccc32)c2ccccc12 [Compound 10, 4-{2-[(1E)-2-[(4-methoxy-naphthalen-1-yl)methylidene]-1H-inden-3-yl]ethyl} morpholine] the Emax (human CB1R (hCB1R)) was 114%, the “effect on CFA-induced heat hyperalgesia” value [1] was “robust relief” and the “Rotarod % change from pre-drug (0.3 mg/kg) at 2-3 hr” value (rats [2]) was 0%. The Ki (CB1R) was 2.4 nM, the Ki (CB1R; Table 1, CP55940 radioligand, read-out: CB1_KI_CP) was 2.43 nM and the “effect in the tail-flick assay” value (rats [3]) was “small, but significant effects”. The “Catalepsy % change from pre-drug (0.3 mg/kg) at 1-3 hrs” value (rats [4]) was 0%, the “effect on SNE-induced mechanical allodynia (ipsilateral hindpaw withdrawal thresholds)” value ([5]; systemic injection) was “anti-allodynic effects” and the “SNE Neuropath Assay-% return to pre-drug (0.3 mg/kg) contralateal threshold at 2-3 h” value ([5]; 2-3 h) was 103.2%. For the same molecule, the “effect on CFA-induced mechanical allodynia” value [6] was “relatively small effect”, the “effect in the hypothermia assay” value (rats [7]; 0.3 mg/kg, intraperitoneal) was “small difference” and the “Hypothermia % change from predrug (0.3 mg/kg) at 2-3 hr” value (rats [7]; 2-3 hr) was 0%. It also gave a Ki (CB2R) of 4.17 nM.
